Test results reported in ChEMBL document CHEMBL1201862, “PubChem BioAssay data set” (2004).
The source made the active and inactive calls.

Key:
Type in all cases: functional
Vero = experiment: viability of Vero cells under compound – cytotoxicity control for flavivirus capping enzyme inhibitors (AID 588742); details: Chlorocebus sabaeus
[1] = target: Induced myeloid leukemia cell differentiation protein Mcl-1 (Homo sapiens, UniProt Q07820)
Genome polyprotein = Genome polyprotein (dengue virus type 2, UniProt P29990); experiment: flavivirus cap methylation enzyme inhibition – biochemical, confirmation dose response, primary screen (AID 588689)
[2] = viability loss in THP-1 monocytes – THP-1 cells, cytotoxicity control for Vif-APOBEC3G degradation inhibitor project, dose response (AID 1117359); details: THP-1
Hexokinase HKDC1 = target: T1, Hexokinase HKDC1 (Homo sapiens, UniProt Q2TB90); experiment: inhibition of HKDC1 glucose phosphorylation – biochemical, W721R variant, dose response (AID 504729)
T1 sequence (Q2TB90 whole entry): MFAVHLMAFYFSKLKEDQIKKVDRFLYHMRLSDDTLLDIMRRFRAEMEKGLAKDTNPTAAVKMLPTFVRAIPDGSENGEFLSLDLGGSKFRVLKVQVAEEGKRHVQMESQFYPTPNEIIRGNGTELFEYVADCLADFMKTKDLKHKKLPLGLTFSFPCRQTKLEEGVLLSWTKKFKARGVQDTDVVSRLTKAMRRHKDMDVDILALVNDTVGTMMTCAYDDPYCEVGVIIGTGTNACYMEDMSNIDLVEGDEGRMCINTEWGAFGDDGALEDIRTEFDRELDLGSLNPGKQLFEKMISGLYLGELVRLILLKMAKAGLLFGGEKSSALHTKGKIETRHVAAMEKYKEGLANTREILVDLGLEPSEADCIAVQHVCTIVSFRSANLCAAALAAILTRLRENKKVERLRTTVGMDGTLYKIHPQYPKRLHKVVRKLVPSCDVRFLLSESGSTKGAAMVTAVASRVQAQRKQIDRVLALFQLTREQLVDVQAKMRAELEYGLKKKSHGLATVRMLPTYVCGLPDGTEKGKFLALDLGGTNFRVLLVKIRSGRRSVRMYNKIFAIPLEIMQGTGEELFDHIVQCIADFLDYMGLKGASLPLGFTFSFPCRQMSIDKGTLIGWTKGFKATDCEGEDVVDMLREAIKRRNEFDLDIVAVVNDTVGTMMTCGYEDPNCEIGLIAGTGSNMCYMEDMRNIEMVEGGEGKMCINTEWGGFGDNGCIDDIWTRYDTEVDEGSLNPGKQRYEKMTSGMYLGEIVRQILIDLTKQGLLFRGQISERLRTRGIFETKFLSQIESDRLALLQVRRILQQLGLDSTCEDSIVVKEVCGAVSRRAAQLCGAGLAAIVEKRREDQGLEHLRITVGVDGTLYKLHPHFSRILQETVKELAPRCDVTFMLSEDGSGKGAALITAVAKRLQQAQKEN

[3] = target: T2, Sentrin-specific protease 6 (Homo sapiens, UniProt Q9GZR1); experiment: inhibition of human SENP6 catalytic domain – biochemical, luminescence, set 2, SAR follow-up (AID 588598)
T2 sequence (Q9GZR1 whole entry): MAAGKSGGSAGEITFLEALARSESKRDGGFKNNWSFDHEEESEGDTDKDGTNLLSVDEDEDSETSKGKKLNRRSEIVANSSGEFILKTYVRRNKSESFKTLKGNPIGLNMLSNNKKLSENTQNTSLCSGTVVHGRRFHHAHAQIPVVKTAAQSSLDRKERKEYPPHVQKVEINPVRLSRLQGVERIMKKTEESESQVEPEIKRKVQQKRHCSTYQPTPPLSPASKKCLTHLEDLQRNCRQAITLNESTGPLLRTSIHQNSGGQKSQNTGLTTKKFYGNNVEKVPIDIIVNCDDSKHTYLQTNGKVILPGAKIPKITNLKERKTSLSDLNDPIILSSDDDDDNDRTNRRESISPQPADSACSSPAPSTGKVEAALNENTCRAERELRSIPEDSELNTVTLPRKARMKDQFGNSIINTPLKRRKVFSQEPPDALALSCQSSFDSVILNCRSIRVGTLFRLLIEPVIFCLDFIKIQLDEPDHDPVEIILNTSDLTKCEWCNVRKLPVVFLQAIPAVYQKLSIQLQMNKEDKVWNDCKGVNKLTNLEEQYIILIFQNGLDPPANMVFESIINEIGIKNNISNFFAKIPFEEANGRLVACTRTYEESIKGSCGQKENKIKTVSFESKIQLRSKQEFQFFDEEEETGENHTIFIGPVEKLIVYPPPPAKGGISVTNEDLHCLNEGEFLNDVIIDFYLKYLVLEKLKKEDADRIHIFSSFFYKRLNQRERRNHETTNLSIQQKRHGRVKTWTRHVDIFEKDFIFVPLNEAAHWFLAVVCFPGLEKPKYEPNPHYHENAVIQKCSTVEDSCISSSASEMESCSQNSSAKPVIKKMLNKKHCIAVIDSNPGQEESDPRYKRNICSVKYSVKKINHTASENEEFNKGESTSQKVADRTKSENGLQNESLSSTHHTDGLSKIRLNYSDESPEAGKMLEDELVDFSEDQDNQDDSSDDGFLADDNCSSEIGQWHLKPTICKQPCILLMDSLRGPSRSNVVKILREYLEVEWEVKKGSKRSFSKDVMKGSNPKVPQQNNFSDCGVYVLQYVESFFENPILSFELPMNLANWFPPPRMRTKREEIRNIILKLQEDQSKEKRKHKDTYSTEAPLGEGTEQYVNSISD

[4] = target: T3, Sentrin-specific protease 8 (Homo sapiens, UniProt Q96LD8); experiment: inhibition of sentrin protease 8 – biochemical, luminescence, set 2, SAR follow-up (AID 588601)
T3 sequence (Q96LD8 whole entry): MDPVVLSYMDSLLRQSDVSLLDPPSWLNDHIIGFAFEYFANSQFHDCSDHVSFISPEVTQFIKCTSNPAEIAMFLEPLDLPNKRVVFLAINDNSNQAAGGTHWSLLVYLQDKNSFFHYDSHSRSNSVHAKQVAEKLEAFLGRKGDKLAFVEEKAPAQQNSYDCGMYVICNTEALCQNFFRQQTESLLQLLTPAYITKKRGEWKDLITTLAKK

Caspase-3 = target: T4, Caspase-3 (Homo sapiens, UniProt P42574); experiment: inhibition of recombinant caspase-3 activity – biochemical, luminescence, set 2, selectivity assay for SENP protease inhibitor project, SAR follow-up (AID 588599)
T4 sequence (P42574 whole entry): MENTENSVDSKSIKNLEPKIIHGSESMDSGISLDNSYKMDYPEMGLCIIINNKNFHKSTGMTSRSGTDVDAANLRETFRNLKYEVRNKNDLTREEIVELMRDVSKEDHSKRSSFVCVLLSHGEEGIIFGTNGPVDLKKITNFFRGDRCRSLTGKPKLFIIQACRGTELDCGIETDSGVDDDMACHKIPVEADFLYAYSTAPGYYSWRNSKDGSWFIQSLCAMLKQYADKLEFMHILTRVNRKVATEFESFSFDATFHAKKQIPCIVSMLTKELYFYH

[5] = target: T5, Sentrin-specific protease 7 (Homo sapiens, UniProt Q9BQF6); experiment: inhibition of human SENP7 cleavage activity – biochemical, luminescence, set 2, SAR follow-up (AID 588600)
T5 sequence (Q9BQF6 whole entry): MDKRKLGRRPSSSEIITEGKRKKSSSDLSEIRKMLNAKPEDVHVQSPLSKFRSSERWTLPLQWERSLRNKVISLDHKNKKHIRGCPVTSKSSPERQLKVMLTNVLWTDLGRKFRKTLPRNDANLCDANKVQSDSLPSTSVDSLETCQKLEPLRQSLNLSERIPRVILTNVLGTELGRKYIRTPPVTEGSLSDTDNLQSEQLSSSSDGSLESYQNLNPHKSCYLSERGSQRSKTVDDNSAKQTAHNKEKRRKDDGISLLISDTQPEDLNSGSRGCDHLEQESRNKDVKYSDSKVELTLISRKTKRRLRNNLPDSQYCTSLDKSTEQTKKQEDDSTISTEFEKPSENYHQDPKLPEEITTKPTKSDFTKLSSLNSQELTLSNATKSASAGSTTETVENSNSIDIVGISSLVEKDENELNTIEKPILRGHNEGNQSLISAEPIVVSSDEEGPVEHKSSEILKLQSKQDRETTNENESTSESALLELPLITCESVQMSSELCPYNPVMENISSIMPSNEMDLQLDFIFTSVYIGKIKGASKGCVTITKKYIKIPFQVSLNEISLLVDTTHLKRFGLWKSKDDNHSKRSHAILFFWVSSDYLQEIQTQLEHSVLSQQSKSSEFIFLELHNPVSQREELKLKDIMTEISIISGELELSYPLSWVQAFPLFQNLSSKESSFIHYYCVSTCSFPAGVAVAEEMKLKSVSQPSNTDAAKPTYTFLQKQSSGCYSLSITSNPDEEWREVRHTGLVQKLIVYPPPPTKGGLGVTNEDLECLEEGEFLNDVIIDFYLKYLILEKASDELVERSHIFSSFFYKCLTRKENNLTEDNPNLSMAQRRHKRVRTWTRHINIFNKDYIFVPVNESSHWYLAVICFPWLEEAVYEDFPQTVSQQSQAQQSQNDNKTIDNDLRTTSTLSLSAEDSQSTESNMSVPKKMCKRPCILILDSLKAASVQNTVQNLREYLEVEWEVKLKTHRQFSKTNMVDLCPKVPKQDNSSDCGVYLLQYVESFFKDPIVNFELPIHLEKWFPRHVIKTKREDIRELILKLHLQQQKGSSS

[6] = target: T6, Rac GTPase-activating protein 1 (Homo sapiens, UniProt Q9H0H5); experiment: blockers of MgcRacGAP-driven Rac1 GTP hydrolysis – biochemical, ADP Hunter fluorescence, primary and confirmatory, confirmation (AID 624330)
T6 sequence (Q9H0H5 whole entry): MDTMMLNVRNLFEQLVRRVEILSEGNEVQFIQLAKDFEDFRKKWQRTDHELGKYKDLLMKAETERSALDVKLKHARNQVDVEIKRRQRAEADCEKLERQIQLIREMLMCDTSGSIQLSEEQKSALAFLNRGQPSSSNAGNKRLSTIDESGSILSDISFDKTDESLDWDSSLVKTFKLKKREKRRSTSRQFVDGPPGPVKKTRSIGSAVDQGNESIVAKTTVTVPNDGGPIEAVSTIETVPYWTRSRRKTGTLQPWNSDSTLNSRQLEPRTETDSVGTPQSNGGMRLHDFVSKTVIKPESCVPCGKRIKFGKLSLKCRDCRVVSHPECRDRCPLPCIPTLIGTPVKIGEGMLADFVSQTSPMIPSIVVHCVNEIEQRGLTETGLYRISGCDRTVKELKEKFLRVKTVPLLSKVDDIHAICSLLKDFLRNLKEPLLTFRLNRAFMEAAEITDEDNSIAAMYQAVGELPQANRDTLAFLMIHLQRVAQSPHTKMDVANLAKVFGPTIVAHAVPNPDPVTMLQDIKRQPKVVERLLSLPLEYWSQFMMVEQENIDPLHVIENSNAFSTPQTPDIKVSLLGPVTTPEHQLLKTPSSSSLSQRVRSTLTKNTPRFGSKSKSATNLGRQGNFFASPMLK

Induced myeloid leukemia cell differentiation protein Mcl-1, sequence (Q07820 whole entry): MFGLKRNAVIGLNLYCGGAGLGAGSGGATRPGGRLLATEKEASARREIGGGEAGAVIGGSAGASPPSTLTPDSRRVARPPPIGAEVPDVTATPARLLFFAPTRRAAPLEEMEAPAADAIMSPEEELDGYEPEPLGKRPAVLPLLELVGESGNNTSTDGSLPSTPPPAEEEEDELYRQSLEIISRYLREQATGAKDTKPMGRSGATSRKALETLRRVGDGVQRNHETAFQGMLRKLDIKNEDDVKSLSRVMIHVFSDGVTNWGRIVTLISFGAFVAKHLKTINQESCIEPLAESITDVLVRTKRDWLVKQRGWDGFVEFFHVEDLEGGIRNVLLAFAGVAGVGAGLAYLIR
Genome polyprotein, sequence (P29990 2492-3391 limits assumed): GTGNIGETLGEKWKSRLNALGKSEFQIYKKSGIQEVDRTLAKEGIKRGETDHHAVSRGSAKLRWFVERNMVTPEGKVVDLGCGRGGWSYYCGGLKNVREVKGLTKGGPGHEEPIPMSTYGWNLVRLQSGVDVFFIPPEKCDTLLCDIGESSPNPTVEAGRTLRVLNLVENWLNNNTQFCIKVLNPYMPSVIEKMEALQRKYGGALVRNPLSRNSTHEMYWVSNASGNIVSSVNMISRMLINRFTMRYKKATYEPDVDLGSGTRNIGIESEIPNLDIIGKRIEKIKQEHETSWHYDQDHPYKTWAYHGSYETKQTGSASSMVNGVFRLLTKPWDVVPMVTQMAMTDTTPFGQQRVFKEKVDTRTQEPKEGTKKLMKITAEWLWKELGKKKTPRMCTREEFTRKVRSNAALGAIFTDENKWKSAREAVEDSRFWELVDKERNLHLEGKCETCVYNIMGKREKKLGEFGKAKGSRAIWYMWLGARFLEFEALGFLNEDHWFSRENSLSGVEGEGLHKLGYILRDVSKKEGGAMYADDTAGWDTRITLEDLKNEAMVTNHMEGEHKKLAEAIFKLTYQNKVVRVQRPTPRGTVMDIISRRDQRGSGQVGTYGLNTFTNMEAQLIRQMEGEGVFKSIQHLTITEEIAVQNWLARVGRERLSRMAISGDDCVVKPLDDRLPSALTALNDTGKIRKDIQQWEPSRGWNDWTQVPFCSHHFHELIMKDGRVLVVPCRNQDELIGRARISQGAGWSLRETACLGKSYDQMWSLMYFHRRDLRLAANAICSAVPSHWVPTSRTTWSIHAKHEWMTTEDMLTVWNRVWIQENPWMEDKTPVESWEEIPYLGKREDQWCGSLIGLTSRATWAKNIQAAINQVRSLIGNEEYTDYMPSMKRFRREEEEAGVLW

Structure (SMILES)	CC50 (Vero)	IC50 [1]	IC50 (Genome polyprotein)	CC50 [2]	IC50 (Hexokinase HKDC1)	IC50 [3]	IC50 [4]	IC50 (Caspase-3)	IC50 [5]	IC50 [6]
COc1ccc2[nH]c3c4c(ccc3c2c1)C(=O)C=CC4=O	17.9 µM (active)	0.919 µM (active)	> 100 µM (active)	3.94 µM (active)	19.1 µM (active)					
COCc1c(Br)c(C)nc(OCC(=O)N/N=C/c2c[nH]c3ccccc23)c1C#N						> 99 µM (inactive)	> 99 µM (inactive)	> 99 µM (inactive)	> 99 µM (inactive)	
CCCC(=O)Nc1ccc(C(=O)N/N=C/c2c(C)[nH]c3ccccc23)cc1						> 99 µM (inactive)	> 99 µM (inactive)	> 99 µM (inactive)	> 99 µM (inactive)	
Cc1cc(O)ccc1/N=C/c1c(C(F)(F)F)n[nH]c1O	> 40 µM (active)									30.2 µM (active)
Cc1ccccc1NC(=O)CCC(=O)N/N=C/c1c[nH]c2ccccc12						> 99 µM (inactive)	> 99 µM (inactive)	> 99 µM (inactive)	> 99 µM (inactive)	
